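Cells were grown in 96-well plates and exposed to each compound for 48 hours at five concentrations; endpoints were interpolated linearly between bracketing concentrations, or set to the highest concentration if not reached. GI50 is the concentration that inhibits growth by half.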 Activity calls are given as the source filed them. No stated cut-off is given here; in the data, active = GI50 up to about 1.1 µM and inactive = higher.
Legend:
Test in all cases: growth of human tumour cells (NCI), 48 h
Malme-3M = tested on: Malme-3M
MDA-MB-231 = tested on: MDA-MB-231
DU-145 = tested on: DU-145
UACC-257 = tested on: UACC-257
HCT-15 = tested on: HCT-15
MOLT-4 = tested on: MOLT-4
ACHN = tested on: ACHN
EKVX = tested on: EKVX
SNB-75 = tested on: SNB-75
NCI-H522 = tested on: NCI-H522
SK-MEL-28 = tested on: SK-MEL-28
PC-3 = tested on: PC-3
SF-268 = tested on: SF-268
MDA-N = tested on: MDA-N
MDA-MB-435 = tested on: MDA-MB-435
U-251 = tested on: U-251
SK-MEL-5 = tested on: SK-MEL-5
SF-539 = tested on: SF-539
SF-295 = tested on: SF-295
A498 = tested on: A498

| Compound | GI50 (Malme-3M) | GI50 (MDA-MB-231) | GI50 (DU-145) | GI50 (UACC-257) | GI50 (HCT-15) [µM] | GI50 (MOLT-4) | GI50 (ACHN) | GI50 (EKVX) | GI50 (SNB-75) | GI50 (NCI-H522) | GI50 (SK-MEL-28) | GI50 (PC-3) | GI50 (SF-268) | GI50 (MDA-N) | GI50 (MDA-MB-435) | GI50 (U-251) | GI50 (SK-MEL-5) | GI50 (SF-539) | GI50 (SF-295) | GI50 (A498) |
| --- | --- | --- | --- | --- | --- | --- | --- | --- | --- | --- | --- | --- | --- | --- | --- | --- | --- | --- | --- | --- |
| CCOC(=O)c1cc2cc(CSc3ccccc3)ccc2oc1=O | > 100 µM (inactive) | 52.6 µM (inactive) | 89.1 µM (inactive) | > 100 µM (inactive) | > 100 | > 100 µM (inactive) | > 100 µM (inactive) | > 100 µM (inactive) | 38.4 µM (inactive) | > 100 µM (inactive) | > 100 µM (inactive) | 91.6 µM (inactive) | > 100 µM (inactive) | > 100 µM (inactive) | > 100 µM (inactive) | > 100 µM (inactive) | > 100 µM (inactive) | 91.8 µM (inactive) | 43.4 µM (inactive) |  |
| CC(=O)O[C@@H]1[C@H](OC2CCCCC2(c2ccccc2)c2ccccc2)O[N+]([O-])=CC12CCCCC2 (stereo partly specified) |  | 15.4 µM (inactive) | 18.1 µM (inactive) | 17.1 µM (inactive) | 16 | 52 µM (inactive) | 17.6 µM (inactive) | 17.9 µM (inactive) | 15.9 µM (inactive) | 18.6 µM (inactive) | 13.8 µM (inactive) | 10.8 µM (inactive) | 18.6 µM (inactive) | 20.2 µM (inactive) | 15.6 µM (inactive) | 17 µM (inactive) | 15 µM (inactive) | 20 µM (inactive) | 15.7 µM (inactive) | 16.3 µM (inactive) |
| COc1ccc(N2C(=O)C3c4[nH]c5ccc(C)cc5c4C4CCC(C)CC4C3C2=O)cc1 (stereo unspecified) | > 100 µM (inactive) | 15.1 µM (inactive) | > 100 µM (inactive) | > 100 µM (inactive) | > 100 | 67.5 µM (inactive) | 99.3 µM (inactive) | > 100 µM (inactive) |  | 92 µM (inactive) |  | > 100 µM (inactive) | 37.8 µM (inactive) | > 100 µM (inactive) | > 100 µM (inactive) | 53.7 µM (inactive) | > 100 µM (inactive) | 17.7 µM (inactive) | 27.1 µM (inactive) | 21.6 µM (inactive) |
| CCOC(=O)C1(C#N)OC(=O)c2cnccc21 (stereo unspecified) | > 100 µM (inactive) | > 100 µM (inactive) | > 100 µM (inactive) | > 100 µM (inactive) | > 100 | > 100 µM (inactive) | 58.6 µM (inactive) | > 100 µM (inactive) | > 100 µM (inactive) | > 100 µM (inactive) | > 100 µM (inactive) | > 100 µM (inactive) | > 100 µM (inactive) | > 100 µM (inactive) | > 100 µM (inactive) | > 100 µM (inactive) |  | > 100 µM (inactive) | > 100 µM (inactive) | > 100 µM (inactive) |
| O=C(NCc1cccs1)OC1CC2CCC1C2 (stereo unspecified) | > 100 µM (inactive) | > 100 µM (inactive) | > 100 µM (inactive) | > 100 µM (inactive) | > 100 | > 100 µM (inactive) | > 100 µM (inactive) | > 100 µM (inactive) |  | > 100 µM (inactive) | > 100 µM (inactive) | > 100 µM (inactive) | > 100 µM (inactive) | > 100 µM (inactive) | > 100 µM (inactive) | > 100 µM (inactive) | > 100 µM (inactive) | > 100 µM (inactive) | > 100 µM (inactive) | > 100 µM (inactive) |
| CC(C)=CCC[C@@H](C)C1=C(O)C(=O)C(C)=C(N)C1=O | 14.1 µM (inactive) | 46.5 µM (inactive) | 42.7 µM (inactive) | 38.5 µM (inactive) | 4.85 | 6.5 µM (inactive) | 18 µM (inactive) | 36.1 µM (inactive) | 28.8 µM (inactive) |  | 34.8 µM (inactive) | 47.8 µM (inactive) | 21.5 µM (inactive) | 24.6 µM (inactive) | 41 µM (inactive) | 34.8 µM (inactive) | 20.4 µM (inactive) | 31.6 µM (inactive) | 12.9 µM (inactive) | 39.8 µM (inactive) |
| NC1CSc2ccccc2NC1=O (stereo unspecified) | > 100 µM (inactive) | > 100 µM (inactive) | > 100 µM (inactive) | > 100 µM (inactive) | > 100 | > 100 µM (inactive) | > 100 µM (inactive) | > 100 µM (inactive) | > 100 µM (inactive) | > 100 µM (inactive) | > 100 µM (inactive) | > 100 µM (inactive) | > 100 µM (inactive) | > 100 µM (inactive) | > 100 µM (inactive) | > 100 µM (inactive) | > 100 µM (inactive) | > 100 µM (inactive) | > 100 µM (inactive) |  |
| Nc1nnc2oc3ccc4ccccc4c3cc1-2 | 23 µM (inactive) | 24.5 µM (inactive) | 56.5 µM (inactive) | 28.2 µM (inactive) | 28 | 27.7 µM (inactive) | 20 µM (inactive) | 33.2 µM (inactive) | 21.4 µM (inactive) | 24.4 µM (inactive) | 39.9 µM (inactive) | 32.7 µM (inactive) | 34 µM (inactive) | 34 µM (inactive) | 24.3 µM (inactive) | 35.9 µM (inactive) | 27.3 µM (inactive) |  | 26.4 µM (inactive) | 24.6 µM (inactive) |
| CCOC(=O)C1NCCc2c1[nH]c1ccccc21 (stereo unspecified) | > 10 µM (inactive) | > 10 µM (inactive) | > 10 µM (inactive) | > 10 µM (inactive) | > 10 | > 10 µM (inactive) |  | > 10 µM (inactive) | > 10 µM (inactive) | > 10 µM (inactive) | > 10 µM (inactive) | > 10 µM (inactive) | > 10 µM (inactive) | > 10 µM (inactive) | > 10 µM (inactive) |  | > 10 µM (inactive) |  | > 10 µM (inactive) |  |
| C=CC(O)C#Cc1cnc(OC)nc1OC (stereo unspecified) |  | > 100 µM (inactive) | > 100 µM (inactive) | > 100 µM (inactive) | > 100 | 32.6 µM (inactive) | > 100 µM (inactive) | > 100 µM (inactive) | 65.8 µM (inactive) | 54.2 µM (inactive) | > 100 µM (inactive) | > 100 µM (inactive) | > 100 µM (inactive) | > 100 µM (inactive) | > 100 µM (inactive) | > 100 µM (inactive) | > 100 µM (inactive) | > 100 µM (inactive) | > 100 µM (inactive) | 16.3 µM (inactive) |
| CC(=O)Oc1cc(-c2oc3cc(OC(C)=O)c(C4OC(CO)C(O)C(O)C4O)c(OC(C)=O)c3c(=O)c2O)c(OC(C)=O)cc1O (stereo unspecified) | > 100 µM (inactive) | > 100 µM (inactive) | > 100 µM (inactive) | > 100 µM (inactive) | > 100 | > 100 µM (inactive) | > 100 µM (inactive) | > 100 µM (inactive) | 60.4 µM (inactive) | 72.6 µM (inactive) |  | > 100 µM (inactive) |  | > 100 µM (inactive) | > 100 µM (inactive) | > 100 µM (inactive) | > 100 µM (inactive) |  | > 100 µM (inactive) |  |
| Cc1ccc(C2SCC(=O)N2c2ccc(-n3c(-c4ccccc4)nc4ccccc4c3=O)cc2)cc1 (stereo unspecified) | 22 µM (inactive) | 4.84 µM (inactive) | 31 µM (inactive) | 24.9 µM (inactive) | 6.65 | 7.1 µM (inactive) | 16.6 µM (inactive) |  | 18.3 µM (inactive) | 13.5 µM (inactive) | 21 µM (inactive) | 12.7 µM (inactive) | 24.2 µM (inactive) | 20.9 µM (inactive) | 21.1 µM (inactive) | 5.3 µM (inactive) | 11.6 µM (inactive) | 12.4 µM (inactive) | 14.7 µM (inactive) | 26.1 µM (inactive) |
| C[C@H]1[C@@H](c2ccccc2)O[B-](c2ccccc2)(c2ccccc2)[N+]1(C)C | 54.8 µM (inactive) | 21.4 µM (inactive) | 57 µM (inactive) | 84.1 µM (inactive) | 38.4 | 43.6 µM (inactive) | 34.3 µM (inactive) | > 100 µM (inactive) |  | 35.7 µM (inactive) | 48 µM (inactive) | < 0.01 µM (active) | > 100 µM (inactive) | 48.8 µM (inactive) | 61.8 µM (inactive) | > 100 µM (inactive) | 28.1 µM (inactive) | 33.3 µM (inactive) | 32.6 µM (inactive) | 86.1 µM (inactive) |
| CC(=O)OCC(OC(C)=O)C(OC(C)=O)C(OC(C)=O)C(/C=N\Nc1nc2ccccc2c(=O)[nH]1)OC(C)=O (stereo unspecified) | > 100 µM (inactive) | > 100 µM (inactive) | > 100 µM (inactive) | > 100 µM (inactive) | > 100 | > 100 µM (inactive) | > 100 µM (inactive) | 54.7 µM (inactive) | 27.6 µM (inactive) | > 100 µM (inactive) | > 100 µM (inactive) | > 100 µM (inactive) | > 100 µM (inactive) | > 100 µM (inactive) | > 100 µM (inactive) | > 100 µM (inactive) | > 100 µM (inactive) | > 100 µM (inactive) | > 100 µM (inactive) |  |
| S=C(Nc1ccc2c(c1)oc1ccccc12)c1cccnc1 | > 100 µM (inactive) | > 100 µM (inactive) | > 100 µM (inactive) |  | > 100 | > 100 µM (inactive) | 29.2 µM (inactive) | 65.9 µM (inactive) | 21.2 µM (inactive) | 22 µM (inactive) | > 100 µM (inactive) | 55.3 µM (inactive) | 29.5 µM (inactive) | > 100 µM (inactive) | > 100 µM (inactive) | 21.6 µM (inactive) | 70.8 µM (inactive) |  | 29.9 µM (inactive) |  |

— ChEMBL document CHEMBL1201862, “PubChem BioAssay data set” (2004)
